In patent US20120258974A1, “USE OF A2B ADENOSINE RECEPTOR ANTAGONISTS FOR TREATING HEART FAILURE AND ARRHYTHMIA IN POST-MYOCARDIAL INFARCTION PATIENTS” (GILEAD SCIENCES, INC., priority 2011, published 2012):
Entries after “also recorded” stand apart in the source; their conditions may differ.

Tests used:
[1] = tested on: primary human cardiac fibroblasts (HCF); test: NECA-induced release of IL-6, collagen, ST-2, PAPPA and expression of fibrotic markers in human cardiac fibroblasts (Example 2); assay type: cell-based; conditions: antagonist with NECA
Experimental: Real-time RT-PCR was performed as published using Stratagene PCR equipment (La Jolla, Calif.). Zhong H., et al., “A2B adenosine receptors increase cytokine release by bronchial smooth muscle cells,” American Journal of Respiratory Cell and Molecular Biology, 30(1): 118-125 (2004).
Expression of AdoR, α-smooth muscle actin and α-1 pro-collagen was determined using real-time RT-PCR. The concentration of IL-6, soluble ST-2 and PAPPA (Pregnancy-associated plasma protein A) in the cell supernatants were measured using ELISA, and the concentration of soluble collagen were determined using Sircol™ collagen assay.

caspase-1 = test: Caspase-1 activity in heart tissue 72 hours after surgery (Example 4); assay type: in vivo, mouse; conditions: 4 mg/kg i.p. twice daily from coronary ligation
Experimental: (§1) Adult out-bred male CD1 mice (8-12 weeks of age) were supplied by Harlan Sprague Dawley (Indianapolis, Ind.). The experiments were conducted under the guidelines of laboratory animals for biomedical research published by National Institutes of Health (No. 85-23, revised 1996). The study protocol was approved by the Virginia Commonwealth University Institutional Animal Care and Use Committee. Experimental AMI was induced by permanent coronary artery ligation in order to induce a large non-reperfused infarct involving approximately 30% of the left ventricle and leading to an ischemic dilated cardiomyopathy (Mezzaroma et al. Proc Natl Acad Sci 2011—in press and Abbate et al. Circulation 2008; 117:2670-83). […]
An additional subset of mice was sacrificed 72 hours after surgery (N=4-6 per treatment group). […] The tissue activity of caspase-1 was determined by cleavage of a fluorogenic substrate (CaspACE, Promega, Madison, Wis.) (Abbate et al. Circulation 2008; 117:2670-83). […] Fluorescence was measured after 60 minutes and was expressed as arbitrary fluorescence units produced by one microgram of sample per minute (fluorescence/μg/min) and calculated as fold change compared to the caspase-1 activity in homogenates of the hearts of sham-operated mice.

[2] = tested on: CD1 mice with experimental AMI (permanent coronary artery ligation); test: Survival after coronary artery ligation surgery (Example 4); assay type: in vivo, mouse; conditions: P=0.14; vehicle 50%
Experimental: as §1, with “117:2670-83). Briefly, mice were orotracheally intubated under anesthesia (pentobarbital 50 to 70 mg/kg), placed in the right lateral decubitus position, then subjected to a left thoracotomy, pericardiectomy, and ligation of the proximal left coronary artery. The chest was closed and the animals were allowed to recover.” for “117:2670-83).”
Differences between the groups were analyzed using the one-way ANOVA followed by Bonferroni test. Changes in repeated measures of echocardiographic data were analyzed using the random effects ANOVA for repeated-measures to determine the main effect of time, group, and time-by-group interaction. […]

[3] = tested on: male mice with permanent coronary artery ligation; test: Mouse model of myocardial infarction: ECHO, plasma biomarkers, mortality (Example 5); assay type: in vivo
Experimental: The effect of Compound A in a mouse model of myocardial infarction was also determined. Male mice underwent permanent coronary artery ligation or sham surgery. Compound A (4 mg/kg) was given i.p. BID starting immediately or 1 hr after the surgery and continued for 14 days. Trans-thoracic ECHO to measure LV end-diastolic/systolic diameter (LVEDD or LVESD), RV end-diastolic area (RVEDA) and myocardial performance index (MPI) was performed prior to surgery and after 7, 14 and 28 days. Analysis of biomarkers of tissue inflammation and injury was conducted on 28 days post-MI.

[4] = tested on: rats with MI (25 minutes coronary occlusion followed by reperfusion); test: Histology of fibrosis in the infarct border zone, rat post-MI model (Example 6); assay type: in vivo; conditions: 5 week post-MI; Sirius red; vs vehicle control
Experimental: (§2) The effects of Compound A in a rat model of post-MI remodeling and VT were determined. MI was caused by 25 minutes occlusion at the left anterior descending coronary ligation followed by reperfusion. One week later, rats were administered either vehicle or Compound A (100 mg/kg) once daily by oral gavage. Serial echocardiograms (ECHOs) to measure LV ejection fraction (LVEF), stroke volume and LV end systolic volume (LVESV) were obtained at baseline, 1 week and 5 week post-MI. Electrophysiological studies, optical mapping, histology and biomarker analysis were conducted at 5 week post-MI.
Abnormal conduction in the IBZ is due to tissue remodeling. Excessive fibrosis in the IBZ is an important substrate for VT vulnerability.

[5] = tested on: rats with MI (25 minutes coronary occlusion followed by reperfusion); test: Plasma biomarkers at 5 week post-MI, rat post-MI model (Example 6); assay type: in vivo
Experimental: as §2

[6] = tested on: human cardiac myocytes (HCM); test: NECA-induced IL-6 release from human cardiac myocytes (Example 7); assay type: cell-based; conditions: NECA in combination with antagonist
Experimental: This example uses human cardiac myocytes to test two other A2B adenosine receptor antagonists on their effect on NECA-induced IL-6 release.
Human cardiac myocytes (HCM) were treated with NECA alone, or in combination with Compound A, Compound B (N-[5-(1-cyclopropyl-2,6-dioxo-3-propyl-2,3,6,7-tetrahydro-1H-purin-8-yl)-pyridin-2-yl]-N-ethyl-nicotinamide, also known as ATL-801) or Compound C (2-(4-benzyloxy-phenyl)-N-[5-(2,6-dioxo-1,3-dipropyl-2,3,6,7-tetrahydro-1H-purin-8-yl)-1-methyl-1H-pyrazol-3-yl]-acetamide).

[7] = mice with MI, 4 mg/kg i.p. BID starting immediately or 1 hr after the surgery
[8] = mice with MI, day 28 post-MI, treatment immediately after surgery

`CCCn1c(=O)c2[nH]c(-c3cnn(Cc4cccc(C(F)(F)F)c4)c3)nc2n(CC)c1=O` [Compound A, 3-ethyl-1-propyl-8-(1-(3-(trifluoromethyl)benzyl)-1H-pyrazol-4-yl)-1H-purine-2,6(3H,7H)-dione] was tested. Which “effect of NECA on expression of α-1 pro-collagen” value [1] did it give?
The value was “completely abolished”.

And the “effect of NECA on expression of α-smooth muscle actin” value [1]?
Its value is “completely abolished”.

What about the “effect of NECA on release of IL-6” value [1] of the same compound?
Its value is “completely abolished”.

What about the “effect of NECA on release of PAPPA” value [1] of the same compound?
The value was “completely abolished”.

What about the “effect of NECA on release of ST-2” value [1] of the same compound?
Its value is “completely abolished”.

And the “effect of NECA on release of collagen” value [1]?
Its value is “completely abolished”.

What about the “caspase-1 activation / activity in the heart during AMI” value (caspase-1) of the same compound?
Its value is “prevented; also recorded: nearly complete reduction”.

And the “mice alive at 28 days after coronary artery ligation surgery” value [2]?
The value was 75%.

What about the “mortality rate (printed: morality rate) of mice with MI during the 4 weeks” value ([3]; 4 mg/kg i.p. BID for 14 days, vehicle 42%) of the same compound?
Its value is 25%.

And the “increase of plasma level of sE-selectin” value ([3]; mice with MI)?
Its value is “significantly inhibited”.

And the “increase of plasma level of sICAM” value ([3]; mice with MI)?
The value was “significantly inhibited”.

And the “increase of plasma level of sVCAM” value ([3]; mice with MI)?
Its value is “significantly inhibited”.

What about the “LV/RV dimensions (LVEDD, LVESD, RVEDA)” value [3, 7] of the same compound?
The value was “significantly reduced”.

And the MPI [3, 7]?
Its MPI is “reduced”.

And the “plasma concentration of IL-6” value [3, 8]?
The value was “significantly reduced”.

What about the “plasma concentration of ST2” value [3, 8] of the same compound?
The value was “significantly reduced”.

What about the “plasma concentration of TNF-α” value [3, 8] of the same compound?
Its value is “significantly reduced”.

What about the “myocardial remodeling/function in sham mice” value ([3]; sham mice) of the same compound?
The value was “no effect”.

What about the “plasma biomarkers in sham-operated mice” value ([3]; sham-operated mice) of the same compound?
The value was “no effect”.

What about the “fibrosis in the IBZ” value [4] of the same compound?
Its value is “inhibited”.

What about the “plasma IL-6” value [5] of the same compound?
Its value is “significantly reduced”.

And the “plasma PAI-1” value [5]?
Its value is “significantly reduced”.

What about the “increase of plasma BNP” value ([5]; P=0.16) of the same compound?
The value was “trend”.

What about the “effect of NECA on HCM (IL-6 release)” value [6] of the same compound?
Its value is “completely abolished”.
